In article PMC9959096, “Selective α3β4 Nicotinic Acetylcholine Receptor Ligand as a Potential Tracer for Drug Addiction” (International Journal of Molecular Sciences, 2023):
Read-outs that look alike come from different tables or passages of the source.

Legend:
human α3β4 nAChR [1] = target: T1, human α3β4 nAChR (Homo sapiens, UniProt P30926+P32297); assay: Competitive radioligand displacement binding assay, membranes of HEK293 cells stably transfected with human α3β4 nAChR; details: for Selectivity Ratios α4β2/α3β4 / Selectivity Ratios α7/α3β4: ratio of Ki values; for Selectivity Ratios α7/α3β4: given as fold
T1 construct: expressed in transfected cells

human α7 nAChR [2] = target: T2, human α7 nAChR (Homo sapiens, UniProt P36544); assay: Radioligand displacement binding assay, membranes of SH-SY5Y cells stably transfected with human α7 nAChR; details: for Selectivity Ratios α4β2/α7: ratio of Ki values
T2 construct: expressed in transfected cells

human α4β2 nAChR = target: T3, human α4β2 nAChR (Homo sapiens, UniProt P17787+P43681); assay: Competitive radioligand displacement binding assay, membranes of HEK293 cells stably transfected with human α4β2 nAChR
T3 construct: expressed in transfected cells

human α3β4 nAChR [3] = target: T1, human α3β4 nAChR; details: cited from earlier work; for Selectivity Ratios α4β2/α3β4 / Selectivity Ratios α7/α3β4: lead compounds, ratio of Ki values
human α7 nAChR [4] = target: T2, human α7 nAChR; parameters: method as in PMID 27774124; details: lead compounds, ratio of Ki values; cited from earlier work
[5] = SH-SY5Y membranes, [3H]methyllycaconitine ~0.5 nM per table footnote, mean of two independent experiments, single values in brackets, read-out: Binding Affinity Ki α7

Row | SMILES | Ki (human α3β4 nAChR [1]) [nM] | Selectivity Ratios α4β2/α3β4 (human α3β4 nAChR [1]) | Selectivity Ratios α7/α3β4 (human α3β4 nAChR [1]) | Ki (human α7 nAChR [2]; [5]) [nM] | Selectivity Ratios α4β2/α7 (human α7 nAChR [2]) | Ki (human α4β2 nAChR) [nM] | melting point | Ki (human α7 nAChR [2]) [nM] | Selectivity Ratios α4β2/α3β4 (human α3β4 nAChR [3]) | Selectivity Ratios α7/α3β4 (human α3β4 nAChR [3]) | Selectivity Ratios α4β2/α7 (human α7 nAChR [4]) | Ki (human α3β4 nAChR [3]; selective α3β4 nAChR ligands) [nM]
1 | Oc1ccc(-c2cn([C@H]3CN4CCC3CC4)nn2)cc1F [AK2, 2-Fluoro-4-(1-((1S,3R,4S)-quinuclidin-3-yl)-1H-1,2,3-triazol-4-yl)phenol] | 601 | 9.95 | 0.01 | 4.49 | 1331 | 5980 | 275 °C (dec.) |  |  |  |  | 
2 | Fc1cc(-c2cn([C@@H]3CN4CCC3CC4)nn2)ccc1OCc1ccccc1 [AK3, (1R,3S,4R)-3-(4-(4-(Benzyloxy)-3-fluorophenyl)-1H-1,2,3-triazol-1-yl)quinuclidine] | 3.18 | 56.6 | 3069 |  | 0.02 | 180 | 173 to 175 °C | 9760 |  |  |  | 
3 | Fc1cccc(-c2cn([C@@H]3CN4CCC3CC4)nn2)c1 [(S)-T2] |  |  |  |  |  |  |  |  | 231 | 294 | 0.79 | 
4 | Fc1cc(-c2cn([C@H]3CN4CCC3CC4)nn2)ccc1OCc1ccccc1 [AK4, (1S,3R,4S)-3-(4-(4-(Benzyloxy)-3-fluorophenyl)-1H-1,2,3-triazol-1-yl)quinuclidine] | 112 | 37.3 | 0.48 | 53.6 | 77.9 | 4180 | 180 to 181 °C |  |  |  |  | 
5 | Oc1ccc(-c2cn([C@@H]3CN4CCC3CC4)nn2)cc1F [AK1, 2-Fluoro-4-(1-((1R,3S,4R)-quinuclidin-3-yl)-1H-1,2,3-triazol-4-yl)phenol] | 2.28 | 221 | 11.7 | 26.7 | 18.9 | 504 | 258 °C (dec.) |  |  |  |  | 
6 | Fc1ccc(-c2cn([C@@H]3CN4CCC3CC4)nn2)cc1 [(S)-T1] |  |  |  |  |  |  |  |  |  |  |  | < 10
7 | Oc1ccc(-c2cn([C@@H]3CN4CCC3CC4)nn2)cc1 [(S)-QND8] |  |  |  |  |  |  |  |  | 186 | 11.8 | 15.7 | 
